Reference: ChEMBL document CHEMBL3832761, “MMV Pathogen Box Bioactivity Data” (2017)
≈ marks a conversion by molar mass, not a printed value.

Experiments:
Format in all cases: functional
[1] = test system: Mycobacterium tuberculosis; assay: AntiMycobacterium tuberculosis activity Replicating form: Average MIC90 (uM)
[2] = test system: Mycobacterium tuberculosis; assay: AntiMycobacterium tuberculosis activity 2-week Alamar Blue 7H9/cholesterol/BSA/Tx MIC (uM); settings: 336 h
[3] = test system: Mycobacterium tuberculosis; assay: AntiMycobacterium tuberculosis activity Non-Replicating form: Average MIC90 (uM)
[4] = test system: Mycobacterium tuberculosis; assay: (§1) AntiMycobacterium tuberculosis activity day 10 in 7H9/2.5mM butyrate/pH6/0.1mM nitrite MIC90 (uM); settings: 240 h
[5] = test system: Mycobacterium tuberculosis; assay: AntiMycobacterium tuberculosis activity 2-week 7H9/DPPC/cholesterol/BSA/Tx MIC (uM); settings: 336 h
[6] = test system: Mycobacterium tuberculosis; assay: AntiMycobacterium tuberculosis activity 1-week 7H9/glucose/BSA/Tx MIC (uM); settings: 168 h
[7] = test system: Mycobacterium tuberculosis; assay: AntiMycobacterium tuberculosis activity 1-week 7H9/ADC/Tw MIC (uM); settings: 168 h
HepG2 = assay: HepG2 CC50 (uM) Cytotoxicity; settings: Homo sapiens
[8] = test system: Mycobacterium tuberculosis; assay: AntiMycobacterium tuberculosis activity 1-week 7H9/DPPC/cholesterol/BSA/Tx MIC (uM); settings: 168 h
[9] = test system: Mycobacterium tuberculosis; assay: AntiMycobacterium tuberculosis activity 2-week 7H9/ADC/Tw MIC (uM); settings: 336 h
[10] = test system: Mycobacterium tuberculosis; assay: AntiMycobacterium tuberculosis activity day 21 in 7H9/2.5mM butyrate/pH6/0.1mM nitrite MIC90 (uM); settings: 504 h
[11] = test system: Mycobacterium tuberculosis; assay: AntiMycobacterium tuberculosis activity 2-week Alamar Blue 7H9/ADC/Tw MIC (uM); settings: 336 h
[12] = test system: Mycobacterium tuberculosis; assay: AntiMycobacterium tuberculosis activity day 21 MIC99 in 7H9/2.5mM butyrate/pH6/0.1mM nitrite MIC99 (uM); settings: 504 h
[13] = test system: Mycobacterium tuberculosis; assay: AntiMycobacterium tuberculosis activity 1-week GAST/Fe MIC (uM); settings: 168 h
[14] = test system: Mycobacterium tuberculosis; assay: AntiMycobacterium tuberculosis activity 2-week GAST/Fe MIC (uM); settings: 336 h
[15] = test system: Mycobacterium tuberculosis; assay: as §1; settings: 240 h; remark: listed apart in the source
[16] = test system: Mycobacterium tuberculosis; assay: AntiMycobacterium tuberculosis activity 2-week 7H9/glucose/BSA/Tx MIC (uM); settings: 336 h
[17] = test system: Mycobacterium tuberculosis; assay: AntiMycobacterium tuberculosis activity 1-week 7H9/cholesterol/BSA/Tx MIC (uM); settings: 168 h

Compound	MIC90 [1]	MIC [2]	MIC90 [3]	MIC90 [4]	MIC [5]	MIC [6]	MIC [7]	CC50 (HepG2)	MIC [8]	MIC [9]	MIC90 [10]	MIC [11]	MIC [12]	MIC [13]	MIC [14]	MIC90 [15]	MIC [16]	MIC [17]
c1cncc(NCc2ccc(-c3cc4ccncc4cc3OC3CCNCC3)s2)c1	11.8 µM (≈ 4.92 µg/mL)	37 µM (≈ 15.4 µg/mL)	58.7 µM (≈ 24.5 µg/mL)	> 50 µM	50 µM (≈ 20.8 µg/mL)	≥ 50 µM	50 µM (≈ 20.8 µg/mL)	8 µM	50 µM (≈ 20.8 µg/mL)	37 µM (≈ 15.4 µg/mL)	> 50 µM	12.5 µM (≈ 5.21 µg/mL)	> 50 µM	3.13 µM (≈ 1.3 µg/mL)	4.7 µM (≈ 1.96 µg/mL)	> 50 µM	≥ 50 µM	50 µM (≈ 20.8 µg/mL)
c1ccc(C[C@@H]2CN(c3nccc(Oc4ccc(-n5ccnc5)cc4)n3)CCN2)cc1	16.5 µM (≈ 6.82 µg/mL)	12.5 µM (≈ 5.16 µg/mL)	38.1 µM (≈ 15.7 µg/mL)	50 µM (≈ 20.6 µg/mL)	37 µM (≈ 15.3 µg/mL)	37 µM (≈ 15.3 µg/mL)	50 µM (≈ 20.6 µg/mL)	29 µM	25 µM (≈ 10.3 µg/mL)	50 µM (≈ 20.6 µg/mL)	25 µM (≈ 10.3 µg/mL)	19 µM (≈ 7.84 µg/mL)	50 µM (≈ 20.6 µg/mL)	37 µM (≈ 15.3 µg/mL)	37 µM (≈ 15.3 µg/mL)	25 µM (≈ 10.3 µg/mL)	50 µM (≈ 20.6 µg/mL)	9.4 µM (≈ 3.88 µg/mL)
N#Cc1nc(-c2ccccc2)oc1S(=O)(=O)c1ccc(Cl)cc1	2.59 µM (≈ 0.893 µg/mL)	12.5 µM (≈ 4.31 µg/mL)	0.41 µM (≈ 0.141 µg/mL)	> 50 µM	12.5 µM (≈ 4.31 µg/mL)	3.13 µM (≈ 1.08 µg/mL)	3.13 µM (≈ 1.08 µg/mL)	2.2 µM	6.25 µM (≈ 2.15 µg/mL)	6.25 µM (≈ 2.15 µg/mL)	12.5 µM (≈ 4.31 µg/mL)	6.25 µM (≈ 2.15 µg/mL)	> 50 µM	0.6 µM (≈ 0.207 µg/mL)	0.6 µM (≈ 0.207 µg/mL)	6.25 µM (≈ 2.15 µg/mL)	6.25 µM (≈ 2.15 µg/mL)	6.25 µM (≈ 2.15 µg/mL)
CCOC(=O)NC(=O)c1ccsc1NC(=O)c1nc2ccccc2s1	0.69 µM (≈ 0.259 µg/mL)	0.1 µM (≈ 0.0375 µg/mL)	0.34 µM (≈ 0.128 µg/mL)	0.19 µM (≈ 0.0713 µg/mL)	0.1 µM (≈ 0.0375 µg/mL)	0.2 µM (≈ 0.0751 µg/mL)	0.2 µM (≈ 0.0751 µg/mL)	47 µM	0.1 µM (≈ 0.0375 µg/mL)	0.15 µM (≈ 0.0563 µg/mL)	≤ 0.04 µM	0.15 µM (≈ 0.0563 µg/mL)	0.09 µM (≈ 0.0338 µg/mL)	< 0.02 µM	< 0.02 µM	≤ 0.04 µM	0.2 µM (≈ 0.0751 µg/mL)	0.05 µM (≈ 0.0188 µg/mL)
O=C1O[C@@H](CO)CN1c1cc(F)c(C2=CCN(Cc3ccccc3)CC2)c(F)c1	11.6 µM (≈ 4.65 µg/mL)	4.7 µM (≈ 1.88 µg/mL)	19 µM (≈ 7.6 µg/mL)	> 50 µM	9.4 µM (≈ 3.76 µg/mL)	4.7 µM (≈ 1.88 µg/mL)	4.7 µM (≈ 1.88 µg/mL)	38.8 µM	9.4 µM (≈ 3.76 µg/mL)	4.7 µM (≈ 1.88 µg/mL)	50 µM (≈ 20 µg/mL)	3.13 µM (≈ 1.25 µg/mL)	> 50 µM	9.4 µM (≈ 3.76 µg/mL)	9.4 µM (≈ 3.76 µg/mL)	50 µM (≈ 20 µg/mL)	4.7 µM (≈ 1.88 µg/mL)	4.7 µM (≈ 1.88 µg/mL)
Cc1ccc2[nH]c(C3CCCNC3)c(-c3ccncc3)c2c1 (configuration not stated)	19.5 µM (≈ 5.68 µg/mL)	9.4 µM (≈ 2.74 µg/mL)	50.5 µM (≈ 14.7 µg/mL)	25 µM (≈ 7.28 µg/mL)	9.4 µM (≈ 2.74 µg/mL)	25 µM (≈ 7.28 µg/mL)	37 µM (≈ 10.8 µg/mL)	12.7 µM	9.4 µM (≈ 2.74 µg/mL)	50 µM (≈ 14.6 µg/mL)	12.5 µM (≈ 3.64 µg/mL)	12.5 µM (≈ 3.64 µg/mL)	25 µM (≈ 7.28 µg/mL)	1.56 µM (≈ 0.455 µg/mL)	2.3 µM (≈ 0.67 µg/mL)	6.25 µM (≈ 1.82 µg/mL)	50 µM (≈ 14.6 µg/mL)	6.25 µM (≈ 1.82 µg/mL)
COc1cc(C(F)(F)F)nc2ccc(C)c(N)c12	> 100 µM	3.13 µM (≈ 0.802 µg/mL)	16.1 µM (≈ 4.12 µg/mL)	> 50 µM	50 µM (≈ 12.8 µg/mL)	25 µM (≈ 6.41 µg/mL)	> 50 µM	> 100 µM	4.7 µM (≈ 1.2 µg/mL)	> 50 µM	6.25 µM (≈ 1.6 µg/mL)	12.5 µM (≈ 3.2 µg/mL)	> 50 µM	0.2 µM (≈ 0.0512 µg/mL)	0.6 µM (≈ 0.154 µg/mL)	3.12 µM (≈ 0.799 µg/mL)	> 50 µM	2.3 µM (≈ 0.589 µg/mL)
O=C(NCc1ccco1)N1CCN(Cc2ccc(Cl)s2)CC1	> 100 µM	12.5 µM (≈ 4.25 µg/mL)	90.2 µM (≈ 30.6 µg/mL)	> 50 µM	50 µM (≈ 17 µg/mL)	> 50 µM	> 50 µM	> 100 µM	37 µM (≈ 12.6 µg/mL)	> 50 µM	> 50 µM	12.5 µM (≈ 4.25 µg/mL)	> 50 µM	0.6 µM (≈ 0.204 µg/mL)	1.2 µM (≈ 0.408 µg/mL)	50 µM (≈ 17 µg/mL)	> 50 µM	37 µM (≈ 12.6 µg/mL)
CCC(Sc1nc2ccccc2o1)C(=O)Nc1nccs1 (configuration not stated)	3.08 µM (≈ 0.984 µg/mL)	12.5 µM (≈ 3.99 µg/mL)	1.38 µM (≈ 0.441 µg/mL)	12.5 µM (≈ 3.99 µg/mL)	12.5 µM (≈ 3.99 µg/mL)	9.4 µM (≈ 3 µg/mL)	9.4 µM (≈ 3 µg/mL)	13 µM	9.4 µM (≈ 3 µg/mL)	9.4 µM (≈ 3 µg/mL)	6.25 µM (≈ 2 µg/mL)	9.4 µM (≈ 3 µg/mL)	6.25 µM (≈ 2 µg/mL)	37 µM (≈ 11.8 µg/mL)	37 µM (≈ 11.8 µg/mL)	6.25 µM (≈ 2 µg/mL)	12.5 µM (≈ 3.99 µg/mL)	12.5 µM (≈ 3.99 µg/mL)
